Test results from patent US11247998B2, “Piperazine heteroaryl derivative, preparation method therefor and use of same in medicine” (priority 2017, dated 2022).

How the values were obtained:
[1] = tested on: HBV DNA replication in HepG2.2.15 cells; assay: In vitro anti-HBV activity test (quantitative assay of intracellular HBV DNA), HepG2.2.15 cells, quantitative PCR; type: cell-based, hepatitis B virus (HBV); conditions: Hepatitis B virus, HBV DNA by quantitative PCR; for EC50: compound treatment Day 2 to Day 8; for Emax: read-out: Emax (effect value of the compound to maximally inhibit HBV DNA replication)
Method: In vitro anti-HBV activity test of the compound of the present invention (quantitative assay of intracellular HBV DNA)
HepG2.2.15 cell is a stable expression cell line that has integrated HBV genome.
Virus particles containing HBV DNA can be synthesized by replication, transcription and encapsidation in the cells, and then secreted. In this study, the quantitative analysis of HBV DNA produced by HepG2.2.15 in vitro proliferation was carried out by quantitative PCR method, thereby determining the activity of the compound of the present invention on inhibiting the HBV DNA replication by inhibiting the assembly of HBV capsid protein.
HepG2.2.15 cells were cultured in DMEM/high glucose medium (10% FBS, […] G418) and passaged every three days. On the day of the experiment, a cell suspension was prepared with fresh cell culture medium, and incubated in a 96-well plate (Corning, #3599) at 40,000 cells/well, at 5% carbon dioxide, 37° C. On Day 2, the compound was dissolved in pure DMSO at a concentration of 20 mM, and then the first concentration of 2 mM was formulated with DMSO, and diluted in 4-fold concentration gradient to 8 concentrations. A control well was added with 90 μl of DMSO. The compound solution was diluted 200-fold with DMEM/high glucose medium. The cell culture plate inoculated on Day 1 was taken out. The medium in the wells was removed by a negative pressure suction device, and the formulated medium containing the compound at each concentration was added respectively to each well at 200 μl/well. The plate was incubated at 37° C. for 72 hours. On Day 5, the medium of the cultured cells was replaced with fresh medium containing the same compound in the same way as Day 2, and then the plate was incubated at 37° C. for 72 hours. On Day 8, the cell culture plate was taken out, centrifuged at 300 g for 3 minutes, and the culture supernatant was collected at 200 μl/well. HBV DNA was extracted from the cell culture supernatant with Qiagen automatic DNA extraction device, and the specific method referred to the instructions of the reagents and instruments. Finally, the extracted DNA was eluted with DNA elution buffer at 100 μl/well. The extracted DNA was subjected to quantitative PCR analysis of HBV DNA using Hepatitis B virus nucleic acid quantitative detection kit (Triplex International Biosciences Co., Ltd.), and the specific method referred to the instruction of the kit. The quantitative standard curve was obtained with the standard sample provided in the kit, and the experiments were performed in parallel. Quantitative conversion of each sample was carried out according to the standard curve. Finally, the EC50 value of the compound was calculated with Graphpad Prism software according to each concentration of the compound and the corresponding DNA value.
The in vitro activity of the compound of the present invention on inhibiting the HBV DNA replication by inhibiting the assembly of HBV capsid protein was determined by the above experiment.

[2] = Effect on in vitro proliferation of HepG2 cells (CellTiter-Glo); type: cell-based; conditions: human; HepG2 cells, 72 hours, CellTiter-Glo
Method: Test Example 2. Effect of the Compound of the Present Invention on In Vitro Proliferation of HepG2 Cells
HepG2 cells in logarithmic growth phase were taken and digested with trypsin to prepare a cell suspension, which was incubated in a 96-well plate (transparent bottom white 96-well plate, PerkinElmer) at 6,000 cells/well, at 5% carbon dioxide, 37° C. for 16-20 hours. On Day 2, the compound was dissolved in pure DMSO at a concentration of 20 mM. The compound was diluted in 3-fold concentration gradient using an automatic pipetting station (Bravo), 8 concentration points for each compound, and the control well was DMSO. The compound formulated in DMSO at each concentration point was diluted 200-fold with EMEM (containing 10% FBS) medium. The cell culture plate inoculated on Day 1 was taken out. The medium in the wells was removed by a negative pressure suction device, and the formulated medium containing the compound at each concentration was added respectively to each well at 100 μl/well. The plate was incubated at 37° C. for 72 hours. On Day 5, the 96-well cell culture plate was taken out, and freshly formulated CellTiter Glo was added to each well at 100 μl/well. The 96-well plate was left to stand for 5-10 minutes, the bottom was then sealed with a white bottom sealing film (PerkinElmer). The plate was placed in the microplate reader to measure the luminescence signal. The CC50 value of the compound was calculated with Graphpad Prism software according to each concentration of the compound and the corresponding proliferation inhibition signal value.
The inhibition effect of the compound of the present invention on in vitro proliferation of HepG2 cells was determined by the above experiment.

[3] = Pharmacokinetics assay in rats after intragastrical administration (LC/MS/MS of plasma); type: in vivo; conditions: both sexes, rat, plasma, po, SD rats, 2 mg/kg; for Vd/F: read-out: Apparent distribution volume Vz/F; for AUC: read-out: Area under curve AUC; for bioavailability: read-out: Bioavailability (%) F %; for CL/F: read-out: Clearance CLz/F; for half-life: read-out: Half-life T1/2 (converted); for Cmax: read-out: Plasma concentration Cmax; for MRT: read-out: Residence time MRT
Method: Pharmacokinetics assay of the compound of the present invention
Rats were used as test animals. The drug concentration in plasma at different time points was determined by LC/MS/MS method after intragastrical administration of the compound of Example 1, the compound of Example 2, the compound of Example 4, the compound of Example 6, the compound of Example 7, the compound of Example 11, the compound of Example 39, the compound of Example 42, the compound of Example 44, the compound of Example 45 and the compound of Example 47 to rats. The pharmacokinetic behavior and property of the compound of the present invention were studied and evaluated in rats.
44 Healthy adult SD rats (half male and half female, 4 rats/group) were purchased from Shanghai Jiesijie Laboratory Animal Co., LTD, with Certificate No.: SCXK (Shanghai) 2013-0006.
A certain amount of the test compound was weighed, and added with 5% by volume of DMSO, 5% by volume of tween 80 and 90% by volume of normal saline to prepare a 0.2 mg/mL colorless, clear and transparent solution.
After an overnight fast, SD rats were administrated intragastrically with the test compound at an administration dose of 2.0 mg/kg and an administration volume of 10.0 mL/kg.
The rats were intragastrically administrated the compound of Example 1, the compound of Example 2, the compound of Example 4, the compound of Example 6, the compound of Example 7, the compound of Example 11, the compound of Example 39, the compound of Example 42, the compound of Example 44, the compound of Example 45 and the compound of Example 47. 0.1 ml of blood was taken from the orbit before administration and at 0.5, 1.0, 2.0, 4.0, 6.0, 8.0, 11.0 and 24.0 hours after administration. The samples were stored in heparinized tubes, and centrifuged for 10 minutes at 3500 rpm to separate the blood plasma. The plasma samples were stored at −20° C. The rats were fed two hours after administration.
The content of the test compound in the plasma of rats after intragastrical administration of the test compound at different concentrations was determined: 25 μL of rat plasma at each time after administration was taken, added with 40 μL of the internal standard solution of camptothecin (100 ng/mL) and 200 μL of acetonitrile, vortex-mixed for 5 minutes, and centrifuged for 10 minutes (4000 rpm). 0.2 μL of the supernatant was taken from the plasma samples for LC/MS/MS analysis.

Row | SMILES | EC50 [1] [nM] | Emax [1] [%] | CC50 at 72 h [2] [µM] | Vd/F [3] [L/kg] | AUC [3] [ng·h/mL] | bioavailability [3] [%] | CL/F [3] [mL/min/kg] | half-life [3] [min] | Cmax [3] [ng/mL] | MRT [3] [h]
1 | C[C@@H](NC(=O)c1cnn2c1CN(C(=O)Nc1ccc(F)c(F)c1)CC2)C(F)(F)F [Example 2, (R)—N^5-(3,4-Difluorophenyl)-N^3-(1,1,1-trifluoropropan-2-yl)-6,7-dihydropyrazolo[1,5-α]pyrazine-3,5(4H)-dicarboxamide] | 30 | 100 | > 100 | 2.58 ± 0.638 | 9250 ± 3310 | 107 | 4 ± 1.48 | 481 ± 136 | 661 ± 200 | 11.5 ± 2.8
2 | C[C@@H](NC(=O)c1cnn2c1CN(C(=O)Nc1cc(F)c(F)c(F)c1)CC2)C(F)(F)F [Example 4, (R)—N^5-(3,4,5-Trifluorophenyl)-N^3-(1,1,1-trifluoropropan-2-yl)-6,7-dihydropyrazolo[1,5-α]pyrazine-3,5(4H)-dicarboxamide] | 27 | 100 | > 100 | 3.69 ± 0.532 | 7130 ± 2640 | 120 | 5.08 ± 1.48 | 528 ± 117 | 425 ± 100 | 13.1 ± 2.5
3 | C[C@H]1Cn2cnc(C(=O)N[C@H](C)C(F)(F)F)c2CN1C(=O)Nc1ccc(F)c(F)c1 [Example 6, (S)—N^7-(3,4-Difluorophenyl)-6-methyl-N^1-((R)-1,1,1-trifluoropropan-2-yl)-5,6-dihydroimidazo[1,5-α]pyrazine-1,7(8H)-dicarboxamide] | 4 | 100 | > 100 | 2.16 ± 0.721 | 12900 ± 6600 | 120 | 3.22 ± 1.66 | 648 ± 486 | 629 ± 167 | 16.7 ± 10.1
4 | C[C@H]1Cn2ncc(C(=O)N[C@H](C)C(F)(F)F)c2CN1C(=O)Nc1ccc(F)c(F)c1 [Example 7, (S)—N^5-(3,4-Difluorophenyl)-6-methyl-N^3-((R)-1,1,1-trifluoropropan-2-yl)-6,7-dihydropyrazolo[1,5-α]pyrazine-3,5(4H)-dicarboxamide] | 38 | 100 | > 100 | 1.65 ± 0.174 | 16500 ± 9260 | 98 | 2.63 ± 1.46 | 583 ± 356 | 1080 ± 151 | 14.1 ± 8
5 | C[C@H]1Cn2cnc(C(=O)N[C@H](C)C(F)(F)F)c2CN1C(=O)Nc1ccc(F)c(C#N)c1 [Example 11, (S)—N^7-(3-Cyano-4-fluorophenyl)-6-methyl-N^1-((R)-1,1,1-trifluoropropan-2-yl)-5,6-dihydroimidazo[1,5-α]pyrazine-1,7-(8H)-dicarboxamide] | 18 | 100 | > 100 | 2.89 ± 0.389 | 10900 ± 4520 | 111 | 3.53 ± 1.5 | 672 ± 338 | 597 ± 64 | 16.3 ± 7.6
6 | C[C@@H]1CN(C(=O)Nc2ccc(F)c(F)c2)Cc2c(C(=O)N[C@H](C)C(F)(F)F)nnn21 [Example 42, (R)—N^5-(3,4-Difluorophenyl)-7-methyl-N^3-((R)-1,1,1-trifluoropropan-2-yl)-6,7-dihydro-[1,2,3]triazolo[1,5-α]pyrazine-3,5(4)-dicarboxamide] | 75 | 100 | > 100 | 5.96 ± 1.22 | 7380 ± 3180 | 87 | 5.3 ± 2.47 | 954 ± 534 | 433 ± 102 | 22.1 ± 12.4
7 | C[C@H]1Cn2cnc(C(=O)NC3(C)CCC3)c2CN1C(=O)Nc1ccc(F)c(C#N)c1 [Example 46, (S)—N^7-(3-Cyano-4-fluorophenyl)-6-methyl-N^1-(1-methylcyclobutyl)-5,6-dihydroimidazo[1,5-α]pyrazine-1,7(8H)-dicarboxamide] | 65 | 97 | > 100 |  |  |  |  |  |  | 
8 | C[C@H]1Cn2cnc(C(=O)NC3(C)CC3)c2CN1C(=O)Nc1ccc(F)c(C#N)c1 [Example 48, (S)—N^7-(3-Cyano-4-fluorophenyl)-6-methyl-N^1-(1-methylcyclopropyl)-5,6-dihydroimidazo[1,5-α]pyrazine-1,7(8H)-dicarboxamide] | 93 | 98 | > 100 |  |  |  |  |  |  | 
9 | Cc1cc(NC(=O)N2Cc3c(C(=O)N[C@H](C)C(F)(F)F)ncn3C[C@@H]2C)ccc1F [Example 58, (S)—N^7-(4-Fluoro-3-methylphenyl)-6-methyl-N^1-((R)-1,1,1-trifluoropropan-2-yl)-5,6-dihydroimidazo[1,5-α]pyrazine-1,7(8H)-dicarboxamide] | 15 | 100 | > 100 |  |  |  |  |  |  | 
